By IC50 is commonly meant the concentration that inhibits the measured activity by half.

Bounds are passed on as bounds.

This passage reports IC50 results from patent publication US8614201B2 (Janssen Pharmaceutica NV, priority 2009, dated 2013).

This experiment addresses Human TRPA1 (Homo sapiens, UniProt O75762). Description: Assay 1: In vitro cellular testing of TRPA1 modulation (CHO-TREx, Fluo-3 calcium fluorescence, AITC agonist). In kind it is cell-based. The conditions noted are these: CHO-TREx cells expressing human TRPA1; Fluo-3 fluorescence (FLIPR/Tetra); agonist 15 μM allyl isothiocyanate (AITC); 30 minute antagonist incubation. Details: expressed in transfected cells; host or cells: CHO-TREx cells (Invitrogen), vector pcDNA4/TO. Summed up:
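Antagonist potency is the 50% reduction of the AITC (15 μM) calcium response, Hill-fitted against no-antagonist and 10 μM ruthenium red controls. Fluo-3-loaded (4 μM) CHO-TREx cells with tetracycline-inducible human TRPA1 got compound in HEPES saline pH 7.4 for 30 min, usually from 10 μM in three-fold dilutions.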

Sequence of Human TRPA1 (O75762 whole entry): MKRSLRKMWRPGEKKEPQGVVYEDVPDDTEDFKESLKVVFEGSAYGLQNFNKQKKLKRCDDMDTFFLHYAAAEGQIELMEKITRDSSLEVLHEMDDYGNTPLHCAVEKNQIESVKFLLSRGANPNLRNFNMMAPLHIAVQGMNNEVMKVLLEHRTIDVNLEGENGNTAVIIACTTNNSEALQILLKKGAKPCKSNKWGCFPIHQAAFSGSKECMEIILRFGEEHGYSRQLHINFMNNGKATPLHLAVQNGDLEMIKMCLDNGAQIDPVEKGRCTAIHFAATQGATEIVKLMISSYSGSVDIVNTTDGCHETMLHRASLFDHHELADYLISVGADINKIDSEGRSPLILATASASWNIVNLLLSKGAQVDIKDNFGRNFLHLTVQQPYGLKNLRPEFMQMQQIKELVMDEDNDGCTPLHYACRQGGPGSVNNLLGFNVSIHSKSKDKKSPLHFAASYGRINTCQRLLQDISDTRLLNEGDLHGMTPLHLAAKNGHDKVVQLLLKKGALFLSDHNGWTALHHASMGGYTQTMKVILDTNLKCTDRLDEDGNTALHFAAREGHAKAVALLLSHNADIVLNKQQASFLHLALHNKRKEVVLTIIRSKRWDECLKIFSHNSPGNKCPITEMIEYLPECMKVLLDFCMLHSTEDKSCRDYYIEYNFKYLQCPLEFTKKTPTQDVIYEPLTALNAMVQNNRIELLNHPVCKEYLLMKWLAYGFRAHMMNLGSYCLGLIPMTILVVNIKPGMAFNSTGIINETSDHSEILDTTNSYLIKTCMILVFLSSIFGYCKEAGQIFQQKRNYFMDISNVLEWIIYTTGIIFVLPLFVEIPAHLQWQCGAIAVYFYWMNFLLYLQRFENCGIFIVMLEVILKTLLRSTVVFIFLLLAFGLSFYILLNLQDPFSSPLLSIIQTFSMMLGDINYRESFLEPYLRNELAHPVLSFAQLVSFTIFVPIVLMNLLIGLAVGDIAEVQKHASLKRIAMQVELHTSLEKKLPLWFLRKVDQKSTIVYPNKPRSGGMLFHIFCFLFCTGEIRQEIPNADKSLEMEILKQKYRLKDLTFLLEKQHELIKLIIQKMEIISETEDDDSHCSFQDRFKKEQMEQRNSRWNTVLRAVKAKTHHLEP

`CN(C)c1cc(CNC(=O)[C@@H]2C=CCN2S(=O)(=O)c2ccc(Cl)s2)cc(-c2ccc(C(F)(F)F)cc2)n1` [Example 334, (2S)-1-[(5-Chlorothiophen-2-yl)sulfonyl]-N-({2-(dimethylamino)-6-[4-(trifluoromethyl)phenyl]pyridin-4-yl}methyl)-2,5-dihydro-1H-pyrrole-2-carboxamide]: the 50% inhibitory concentration (IC50) amounted to 2630 nM.

With `CNc1cc(CNC(=O)[C@@H]2CCCN2S(=O)(=O)c2ccc(Cl)s2)cc(-c2ccc(C(F)(F)F)cc2)n1` [Example 335, 1-[(5-Chlorothiophen-2-yl)sulfonyl]-N-({2-(methylamino)-6-[4-(trifluoromethyl)phenyl]pyridin-4-yl}methyl)-L-prolinamide], the 50% inhibitory concentration (IC50) came out at 179 nM.

On to `CC1CCCN1c1cc(CNC(=O)[C@@H]2CCCN2S(=O)(=O)c2ccc(F)cc2)cc(-c2ccc(C(F)(F)F)cc2)n1` (stereo partly drawn) [Example 336, 1-[(4-Fluorophenyl)sulfonyl]-N-({2-(2-methylpyrrolidin-1-yl)-6-[4-(trifluoromethyl)phenyl]pyridin-4-yl}methyl)-L-prolinamide], for which the half-inhibitory concentration (IC50) stood at 113 nM.

Turning to `CNc1cc(CNC(=O)[C@@H]2CCCN2S(=O)(=O)c2ccc(F)cc2)cc(-c2ccc(C(F)(F)F)cc2)n1` [Example 337, 1-[(4-Fluorophenyl)sulfonyl]-N-({2-(methylamino)-6-[4-(trifluoromethyl)phenyl]pyridin-4-yl}methyl)-L-prolinamide], the IC50 came out at 1010 nM.

Take `CN(C)c1cc(CNC(=O)[C@@H]2C=CCN2S(=O)(=O)c2ccc(F)cc2)cc(-c2ccc(C(F)(F)F)cc2)n1` [Example 338, (2S)—N-({2-(Dimethylamino)-6-[4-(trifluoromethyl)phenyl]pyridin-4-yl}methyl)-1-[(4-fluorophenyl)sulfonyl]-2,5-dihydro-1H-pyrrole-2-carboxamide]: the IC50 came out at 382 nM.

Regarding `O=C(NCc1cc(-c2ccc(C(F)(F)F)cc2)nc(N2CCN(Cc3ccccn3)CC2)c1)[C@@H]1CCCN1S(=O)(=O)c1ccc(Cl)s1` [Example 339, 1-[(5-Chlorothiophen-2-yl)sulfonyl]-N-({2-[4-(pyridin-2-ylmethyl)piperazin-1-yl]-6-[4-(trifluoromethyl)phenyl]pyridin-4-yl}methyl)-L-prolinamide], the 50% inhibitory concentration (IC50) amounted to 251 nM.

Regarding `O=C(NCc1cc(-c2ccc(C(F)(F)F)cc2)nc(N2CCN(Cc3ccncc3)CC2)c1)[C@@H]1C=CCN1S(=O)(=O)c1ccc(Cl)s1` [Example 340, (2S)-1-[(5-Chlorothiophen-2-yl)sulfonyl]-N-({2-[4-(pyridin-4-ylmethyl)piperazin-1-yl]-6-[4-(trifluoromethyl)phenyl]pyridin-4-yl}methyl)-2,5-dihydro-1H-pyrrole-2-carboxamide], the concentration for half-maximal inhibition (IC50) is 210 nM.

Consider `O=C(NCc1cc(-c2ccc(C(F)(F)F)cc2)nc(N2CCN(Cc3cccnc3)CC2)c1)[C@@H]1CCCN1S(=O)(=O)c1ccc(Cl)s1` [Example 341, 1-[(5-Chlorothiophen-2-yl)sulfonyl]-N-({2-[4-(pyridin-3-ylmethyl)piperazin-1-yl]-6-[4-(trifluoromethyl)phenyl]pyridin-4-yl}methyl)-L-prolinamide], for which the IC50 was found to be 693 nM.

On to `O=C(NCc1cc(-c2ccc(C(F)(F)F)cc2)nc(N2CCN(Cc3ccncc3)CC2)c1)[C@@H]1CCCN1S(=O)(=O)c1ccc(F)cc1` [Example 342, 1-[(4-Fluorophenyl)sulfonyl]-N-({2-[4-(pyridin-4-ylmethyl)piperazin-1-yl]-6-[4-(trifluoromethyl)phenyl]pyridin-4-yl}methyl)-L-prolinamide], for which the half-inhibitory concentration (IC50) is 296 nM.

With `O=C(NCc1cc(NCc2ccncc2)nc(-c2ccc(C(F)(F)F)cc2)c1)[C@@H]1CC(F)(F)CN1S(=O)(=O)c1ccc(F)cc1` [Example 343, 4,4-Difluoro-1-[(4-fluorophenyl)sulfonyl]-N-({2-[(pyridin-4-ylmethyl)amino]-6-[4-(trifluoromethyl)phenyl]pyridin-4-yl}methyl)-L-prolinamide], the IC50 is 1060 nM.

`O=C(NCc1cc(NCc2ccncc2)nc(-c2ccc(C(F)(F)F)cc2)c1)[C@@H]1C=CCN1S(=O)(=O)c1ccc(F)cc1` [Example 344, (2S)-1-[(4-Fluorophenyl)sulfonyl]-N-({2-[(pyridin-4-ylmethyl)amino]-6-[4-(trifluoromethyl)phenyl]pyridin-4-yl}methyl)-2,5-dihydro-1H-pyrrole-2-carboxamide]: the concentration for half-maximal inhibition (IC50) was more than 10000 nM.

`O=C(NCc1cc(NCc2cccnc2)nc(-c2ccc(C(F)(F)F)cc2)c1)[C@@H]1C=CCN1S(=O)(=O)c1ccc(Cl)s1` [Example 345, (2S)-1-[(5-Chlorothiophen-2-yl)sulfonyl]-N-({2-[(pyridin-3-ylmethyl)amino]-6-[4-(trifluoromethyl)phenyl]pyridin-4-yl}methyl)-2,5-dihydro-1H-pyrrole-2-carboxamide]: the IC50 was determined as 2500 nM.

`O=C(NCc1cc(NCc2cccnc2)nc(-c2ccc(C(F)(F)F)cc2)c1)[C@@H]1C=CCN1S(=O)(=O)c1ccc(F)cc1` [Example 346, (2S)-1-[(4-Fluorophenyl)sulfonyl]-N-({2-[(pyridin-3-ylmethyl)amino]-6-[4-(trifluoromethyl)phenyl]pyridin-4-yl}methyl)-2,5-dihydro-1H-pyrrole-2-carboxamide]: the IC50 is more than 10000 nM.

As for `O=C(NCc1cc(NCc2ccccn2)nc(-c2ccc(C(F)(F)F)cc2)c1)[C@@H]1CCCN1S(=O)(=O)c1ccc(Cl)s1` [Example 347, 1-[(5-Chlorothiophen-2-yl)sulfonyl]-N-({2-[(pyridin-2-ylmethyl)amino]-6-[4-(trifluoromethyl)phenyl]pyridin-4-yl}methyl)-L-prolinamide], the IC50 was 518 nM.

Regarding `O=C(NCc1cc(-c2ccc(C(F)(F)F)cc2)nc(N2CCN(Cc3ccccn3)CC2)c1)[C@@H]1CCCN1S(=O)(=O)c1ccc(F)cc1` [Example 348, 1-[(4-Fluorophenyl)sulfonyl]-N-({2-[4-(pyridin-2-ylmethyl)piperazin-1-yl]-6-[4-(trifluoromethyl)phenyl]pyridin-4-yl}methyl)-L-prolinamide], the half-maximal inhibitory concentration (IC50) amounted to 1630 nM.

On to `CC(Nc1cc(CNC(=O)[C@@H]2CCCN2S(=O)(=O)c2ccc(F)cc2)cc(-c2ccc(C(F)(F)F)cc2)n1)c1cccnc1` (stereo partly drawn) [Example 349, 1-[(4-Fluorophenyl)sulfonyl]-N-({2-[(1-pyridin-3-ylethyl)amino]-6-[4-(trifluoromethyl)phenyl]pyridin-4-yl}methyl)-L-prolinamide], for which the IC50 stood at 1690 nM.

For the molecule `CC(Nc1cc(CNC(=O)[C@@H]2C=CCN2S(=O)(=O)c2ccc(F)cc2)cc(-c2ccc(C(F)(F)F)cc2)n1)c1cccnc1` (stereo partly drawn) [Example 350, (2S)-1-[(4-Fluorophenyl)sulfonyl]-N-({2-[(1-pyridin-3-ylethyl)amino]-6-[4-(trifluoromethyl)phenyl]pyridin-4-yl}methyl)-2,5-dihydro-1H-pyrrole-2-carboxamide], the IC50 was 7260 nM.

For `CC(Nc1cc(CNC(=O)[C@@H]2C=CCN2S(=O)(=O)c2ccc(Cl)s2)cc(-c2ccc(C(F)(F)F)cc2)n1)c1cccnc1` (stereo partly drawn) [Example 351, (2S)-1-[(5-Chlorothiophen-2-yl)sulfonyl]-N-({2-[(1-pyridin-3-ylethyl)amino]-6-[4-(trifluoromethyl)phenyl]pyridin-4-yl}methyl)-2,5-dihydro-1H-pyrrole-2-carboxamide], the concentration for half-maximal inhibition (IC50) was more than 10000 nM.

As for `O=C(NCc1cc(NCc2ccccc2)nc(-c2ccc(C(F)(F)F)cc2)c1)[C@@H]1CC(F)(F)CN1S(=O)(=O)c1ccc(Cl)s1` [Example 352, N-({2-(Benzylamino)-6-[4-(trifluoromethyl)phenyl]pyridin-4-yl}methyl)-1-[(5-chlorothiophen-2-yl)sulfonyl]-4,4-difluoro-L-prolinamide], the 50% inhibitory concentration (IC50) came out at 7090 nM.

On to `O=C(NCc1cc(-c2ccc(C(F)(F)F)cc2)nc(N2CCN(Cc3ccccn3)CC2)c1)[C@@H]1C=CCN1S(=O)(=O)c1ccc(F)cc1` [Example 353, (2S)-1-[(4-Fluorophenyl)sulfonyl]-N-({2-[4-(pyridin-2-ylmethyl)piperazin-1-yl]-6-[4-(trifluoromethyl)phenyl]pyridin-4-yl}methyl)-2,5-dihydro-1H-pyrrole-2-carboxamide], for which the IC50 amounted to 2750 nM.

Take `O=C(NCc1cc(-c2ccc(C(F)(F)F)cc2)nc(N2CCN(Cc3ccccn3)CC2)c1)[C@@H]1C=CCN1S(=O)(=O)c1ccc(Cl)s1` [Example 354, (2S)-1-[(5-Chlorothiophen-2-yl)sulfonyl]-N-({2-[4-(pyridin-2-ylmethyl)piperazin-1-yl]-6-[4-(trifluoromethyl)phenyl]pyridin-4-yl}methyl)-2,5-dihydro-1H-pyrrole-2-carboxamide]: the concentration for half-maximal inhibition (IC50) came to 1070 nM.

Take `O=C(NCc1cc(-c2ccc(C(F)(F)F)cc2)nc(N2CCN(Cc3cccnc3)CC2)c1)[C@@H]1C=CCN1S(=O)(=O)c1ccc(Cl)s1` [Example 355, (2S)-1-[(5-Chlorothiophen-2-yl)sulfonyl]-N-({2-[4-(pyridin-3-ylmethyl)piperazin-1-yl]-6-[4-(trifluoromethyl)phenyl]pyridin-4-yl}methyl)-2,5-dihydro-1H-pyrrole-2-carboxamide]: the IC50 was determined as 891 nM.

For the molecule `O=C(NCc1cc(-c2ccc(C(F)(F)F)cc2)nc(N2CCN(Cc3ccncc3)CC2)c1)[C@@H]1CC(F)(F)CN1S(=O)(=O)c1ccc(F)cc1` [Example 356, 4,4-Difluoro-1-[(4-fluorophenyl)sulfonyl]-N-({2-[4-(pyridin-4-ylmethyl)piperazin-1-yl]-6-[4-(trifluoromethyl)phenyl]pyridin-4-yl}methyl)-L-prolinamide], the half-inhibitory concentration (IC50) was more than 10000 nM.

With `O=C(NCc1cc(-c2ccc(C(F)(F)F)cc2)nc(N2CCN(c3ccccc3F)CC2)c1)[C@@H]1CC(F)(F)CN1S(=O)(=O)c1ccc(F)cc1` [Example 357, 4,4-Difluoro-N-({2-[4-(2-fluorophenyl)piperazin-1-yl]-6-[4-(trifluoromethyl)phenyl]pyridin-4-yl}methyl)-1-[(4-fluorophenyl)sulfonyl]-L-prolinamide], the IC50 was more than 10000 nM.
